Source: patent publication US12077503B2, “Substituted cyclic amides and their use as herbicides” (FMC CORPORATION, priority 2015, dated 2024)

Legend:
Type in all cases: in vivo
[1] = tested on: ivy-leaved morning glory (Ipomoea hederacea); assay: Test G Post-Emergence Protocol; details: Ipomoea, post-emergence, 312 h; for pest or weed control at 15.625 g/ha: 15.625 g ai/ha, evaluated after 13 days (100=total damage to plant; 0=no damage to plant), read-out: Morningglory, Ivy-leaved damage rating; for pest or weed control at 62.5 g/ha: 62.5 g ai/ha, read-out: Morningglory, Ivy-leaved damage rating (100=total damage to plant; 0=no damage to plant); for pest or weed control at 62.5 g/ha / pest or weed control at 250 g/ha: evaluated after 13 days; for pest or weed control at 250 g/ha: 250 g ai/ha, read-out: damage to plant, Morningglory, Ivy-leaved (100=total damage to plant; 0=no damage to plant)
Outline: (§1)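 Damage was rated 13 days after treatment from 0 (none) to 100 (plant killed). Compound was applied as a spray at 15.625, 62.5 or 250 g/ha in 50:50 acetone/water containing 0.5% Tween 20, onto 8-day-old potted plants kept in a glasshouse (24/16 °C, 14 h light, 65% humidity).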

[2] = tested on: giant foxtail (Setaria faberi); assay: Test G Post-Emergence Protocol; details: Setaria faberi, post-emergence, 312 h; for pest or weed control at 15.625 g/ha: 15.625 g ai/ha, evaluated after 13 days (100=total damage to plant; 0=no damage to plant), read-out: Foxtail, Giant damage rating; for pest or weed control at 62.5 g/ha: 62.5 g ai/ha, read-out: Foxtail, Giant damage rating (100=total damage to plant; 0=no damage to plant); for pest or weed control at 62.5 g/ha / pest or weed control at 250 g/ha: evaluated after 13 days; for pest or weed control at 250 g/ha: 250 g ai/ha, read-out: damage to plant, Foxtail, Giant (100=total damage to plant; 0=no damage to plant)
Outline: as §1

[3] = tested on: redroot pigweed (Amaranthus retroflexus); assay: Test G Post-Emergence Protocol; details: Amaranthus retroflexus, post-emergence, 312 h; for pest or weed control at 15.625 g/ha: 15.625 g ai/ha, evaluated after 13 days (100=total damage to plant; 0=no damage to plant), read-out: Pigweed, Redroot damage rating; for pest or weed control at 62.5 g/ha: 62.5 g ai/ha, read-out: Pigweed, Redroot damage rating (100=total damage to plant; 0=no damage to plant); for pest or weed control at 62.5 g/ha / pest or weed control at 250 g/ha: evaluated after 13 days; for pest or weed control at 250 g/ha: 250 g ai/ha, read-out: damage to plant, Pigweed, Redroot (100=total damage to plant; 0=no damage to plant)
Outline: as §1

[4] = tested on: barnyardgrass (Echinochloa crus-galli); assay: Test G Post-Emergence Protocol; details: Echinochloa crus-galli, post-emergence, 312 h; for pest or weed control at 15.625 g/ha: 15.625 g ai/ha, evaluated after 13 days (100=total damage to plant; 0=no damage to plant), read-out: Barnyardgrass damage rating; for pest or weed control at 62.5 g/ha: 62.5 g ai/ha, read-out: Barnyardgrass damage rating (100=total damage to plant; 0=no damage to plant); for pest or weed control at 62.5 g/ha / pest or weed control at 250 g/ha: evaluated after 13 days; for pest or weed control at 250 g/ha: 250 g ai/ha, read-out: damage to plant, Barnyardgrass (100=total damage to plant; 0=no damage to plant)
Outline: as §1

[5] = tested on: velvetleaf (Abutilon theophrasti); assay: Test G Post-Emergence Protocol; details: Abutilon theophrasti, post-emergence, 312 h; for pest or weed control at 15.625 g/ha: 15.625 g ai/ha, evaluated after 13 days (100=total damage to plant; 0=no damage to plant), read-out: Velvetleaf damage rating; for pest or weed control at 62.5 g/ha: 62.5 g ai/ha, read-out: Velvetleaf damage rating (100=total damage to plant; 0=no damage to plant); for pest or weed control at 62.5 g/ha / pest or weed control at 250 g/ha: evaluated after 13 days; for pest or weed control at 250 g/ha: 250 g ai/ha, read-out: damage to plant, Velvetleaf (100=total damage to plant; 0=no damage to plant)
Outline: as §1

corn (Zea mays) [6] = assay: Test G Post-Emergence Protocol; details: Zea mays, post-emergence, 312 h; for plant injury at 15.625 g/ha: 15.625 g ai/ha, evaluated after 13 days (100=total damage to plant; 0=no damage to plant), read-out: Corn damage rating; for plant injury at 62.5 g/ha: 62.5 g ai/ha, read-out: Corn damage rating (100=total damage to plant; 0=no damage to plant); for plant injury at 62.5 g/ha / plant injury at 250 g/ha: evaluated after 13 days; for plant injury at 250 g/ha: 250 g ai/ha, read-out: damage to plant, Corn (100=total damage to plant; 0=no damage to plant)
Outline: as §1

[7] = tested on: ivy-leaved morning glory (Ipomoea hederacea); assay: Test G Pre-Emergence Protocol; details: Ipomoea, pre-emergence, 312 h, evaluated after 13 days; for pest or weed control at 15.625 g/ha: 15.625 g ai/ha, read-out: Morning-glory, Ivy-leaved damage rating (100=total damage to plant; 0=no damage to plant); for pest or weed control at 62.5 g/ha: 62.5 g ai/ha, 100=total damage to plant, 0=no damage to plant, read-out: plant damage rating, Morningglory, Ivy-leaved; for pest or weed control at 250 g/ha: 250 g ai/ha, read-out: Morningglory, Ivy-leaved damage rating (100=total damage to plant; 0=no damage to plant)
Outline: (§2)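 Visual injury (0–100) at day 13 after a single pre-emergence spray. Rates: 15.625, 62.5, 250 g/ha in acetone–water 50:50 with 0.5% Tween 20. Growth conditions: 24/16° C, 14 h light, 65% humidity.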

[8] = tested on: giant foxtail (Setaria faberi); assay: Test G Pre-Emergence Protocol; details: Setaria faberi, pre-emergence, 312 h, evaluated after 13 days; for pest or weed control at 15.625 g/ha: 15.625 g ai/ha; for pest or weed control at 15.625 g/ha / pest or weed control at 250 g/ha: read-out: Foxtail, Giant damage rating (100=total damage to plant; 0=no damage to plant); for pest or weed control at 62.5 g/ha: 62.5 g ai/ha, 100=total damage to plant, 0=no damage to plant, read-out: plant damage rating, Foxtail, Giant; for pest or weed control at 250 g/ha: 250 g ai/ha
Outline: as §2

[9] = tested on: redroot pigweed (Amaranthus retroflexus); assay: Test G Pre-Emergence Protocol; details: Amaranthus retroflexus, pre-emergence, 312 h, evaluated after 13 days; for pest or weed control at 15.625 g/ha: 15.625 g ai/ha; for pest or weed control at 15.625 g/ha / pest or weed control at 250 g/ha: read-out: Pigweed, Redroot damage rating (100=total damage to plant; 0=no damage to plant); for pest or weed control at 62.5 g/ha: 62.5 g ai/ha, 100=total damage to plant, 0=no damage to plant, read-out: plant damage rating, Pigweed, Redroot; for pest or weed control at 250 g/ha: 250 g ai/ha
Outline: as §2

[10] = tested on: barnyardgrass (Echinochloa crus-galli); assay: Test G Pre-Emergence Protocol; details: Echinochloa crus-galli, pre-emergence, 312 h, evaluated after 13 days; for pest or weed control at 15.625 g/ha: 15.625 g ai/ha, read-out: Barnyard grass damage rating (100=total damage to plant; 0=no damage to plant); for pest or weed control at 62.5 g/ha: 62.5 g ai/ha, 100=total damage to plant, 0=no damage to plant, read-out: plant damage rating, Barnyardgrass; for pest or weed control at 250 g/ha: 250 g ai/ha, read-out: Barnyardgrass damage rating (100=total damage to plant; 0=no damage to plant)
Outline: as §2

[11] = tested on: velvetleaf (Abutilon theophrasti); assay: Test G Pre-Emergence Protocol; details: Abutilon theophrasti, pre-emergence, 312 h, evaluated after 13 days; for pest or weed control at 15.625 g/ha: 15.625 g ai/ha; for pest or weed control at 15.625 g/ha / pest or weed control at 250 g/ha: read-out: Velvetleaf damage rating (100=total damage to plant; 0=no damage to plant); for pest or weed control at 62.5 g/ha: 62.5 g ai/ha, 100=total damage to plant, 0=no damage to plant, read-out: plant damage rating, Velvetleaf; for pest or weed control at 250 g/ha: 250 g ai/ha
Outline: as §2

corn (Zea mays) [12] = assay: Test G Pre-Emergence Protocol; details: Zea mays, pre-emergence, 312 h, evaluated after 13 days; for plant injury at 15.625 g/ha: 15.625 g ai/ha; for plant injury at 15.625 g/ha / plant injury at 250 g/ha: read-out: Corn damage rating (100=total damage to plant; 0=no damage to plant); for plant injury at 62.5 g/ha: 62.5 g ai/ha, 100=total damage to plant, 0=no damage to plant, read-out: plant damage rating, Corn; for plant injury at 250 g/ha: 250 g ai/ha
Outline: as §2

Compound | pest or weed control at 15.625 g/ha [1] | pest or weed control at 62.5 g/ha [1] | pest or weed control at 250 g/ha [1] | pest or weed control at 15.625 g/ha [2] | pest or weed control at 62.5 g/ha [2] | pest or weed control at 250 g/ha [2] | pest or weed control at 15.625 g/ha [3] | pest or weed control at 62.5 g/ha [3] | pest or weed control at 250 g/ha [3] | pest or weed control at 15.625 g/ha [4] | pest or weed control at 62.5 g/ha [4] | pest or weed control at 250 g/ha [4] | pest or weed control at 15.625 g/ha [5] | pest or weed control at 62.5 g/ha [5] | pest or weed control at 250 g/ha [5] | plant injury at 15.625 g/ha (corn (Zea mays) [6]) | plant injury at 62.5 g/ha (corn (Zea mays) [6]) | plant injury at 250 g/ha (corn (Zea mays) [6]) | pest or weed control at 15.625 g/ha [7] | pest or weed control at 62.5 g/ha [7] | further results
Cc1cc(C(F)(F)F)ccc1[C@@H]1CN(C)C(=O)[C@H]1C(=O)Nc1ccccc1F (racemic) [Compound 1415] | 10% | 10% | 20% | 20% | 60% | 70% | 10% | 10% | 30% | 20% | 30% | 60% | 10% | 0% | 20% | 20% | 10% | 20% | 0% | 0% | pest or weed control at 250 g/ha [7]: 0%; pest or weed control at 15.625 g/ha [8]: 10%; pest or weed control at 62.5 g/ha [8]: 70%; pest or weed control at 250 g/ha [8]: 80%; pest or weed control at 15.625 g/ha [9]: 10%; pest or weed control at 62.5 g/ha [9]: 0%; pest or weed control at 250 g/ha [9]: 10%; pest or weed control at 15.625 g/ha [10]: 10%; pest or weed control at 62.5 g/ha [10]: 50%; pest or weed control at 250 g/ha [10]: 70%; pest or weed control at 15.625 g/ha [11]: 0%; pest or weed control at 62.5 g/ha [11]: 0%; pest or weed control at 250 g/ha [11]: 0%; plant injury at 15.625 g/ha (corn (Zea mays) [12]): 0%; plant injury at 62.5 g/ha (corn (Zea mays) [12]): 0%; plant injury at 250 g/ha (corn (Zea mays) [12]): 0%
CN1C[C@@H](c2ccc(Cl)nc2)[C@H](C(=O)Nc2cccc(F)c2F)C1=O (racemic) [Compound 1462] | 0% | 20% | 10% | 0% | 50% | 70% | 0% | 0% | 0% | 0% | 20% | 30% | 0% | 0% | 0% | 0% | 0% | 10% | 0% | 0% | pest or weed control at 250 g/ha [7]: 50%; pest or weed control at 15.625 g/ha [8]: 0%; pest or weed control at 62.5 g/ha [8]: 70%; pest or weed control at 250 g/ha [8]: 80%; pest or weed control at 15.625 g/ha [9]: 0%; pest or weed control at 62.5 g/ha [9]: 0%; pest or weed control at 250 g/ha [9]: 0%; pest or weed control at 15.625 g/ha [10]: 20%; pest or weed control at 62.5 g/ha [10]: 50%; pest or weed control at 250 g/ha [10]: 80%; pest or weed control at 15.625 g/ha [11]: 0%; pest or weed control at 62.5 g/ha [11]: 0%; pest or weed control at 250 g/ha [11]: 0%; plant injury at 15.625 g/ha (corn (Zea mays) [12]): 0%; plant injury at 62.5 g/ha (corn (Zea mays) [12]): 0%; plant injury at 250 g/ha (corn (Zea mays) [12]): 0%
CN1C[C@@H](c2ccc(C(F)(F)F)cc2)[C@H](C(=O)Nc2nnc(C(F)(F)F)s2)C1=O (racemic) [Compound 1548] | 0% | 0% | 0% | 0% | 0% | 0% | 0% | 0% | 0% | 0% | 0% | 0% | 0% | 0% | 0% | 0% | 0% | 0% | 0% | 0% | pest or weed control at 250 g/ha [7]: 0%; pest or weed control at 15.625 g/ha [8]: 0%; pest or weed control at 62.5 g/ha [8]: 0%; pest or weed control at 250 g/ha [8]: 0%; pest or weed control at 15.625 g/ha [9]: 0%; pest or weed control at 62.5 g/ha [9]: 0%; pest or weed control at 250 g/ha [9]: 0%; pest or weed control at 15.625 g/ha [10]: 0%; pest or weed control at 62.5 g/ha [10]: 0%; pest or weed control at 250 g/ha [10]: 0%; pest or weed control at 15.625 g/ha [11]: 0%; pest or weed control at 62.5 g/ha [11]: 0%; pest or weed control at 250 g/ha [11]: 0%; plant injury at 15.625 g/ha (corn (Zea mays) [12]): 0%; plant injury at 62.5 g/ha (corn (Zea mays) [12]): 0%; plant injury at 250 g/ha (corn (Zea mays) [12]): 0%
